Laboratory results: paper PMC4336331, “Novel Receptor-Derived Cyclopeptides to Treat Heart Failure Caused by Anti-β1-Adrenoceptor Antibodies in a Human-Analogous Rat Model” (PLoS ONE, 2015)

Experiments:
[1] = test system: anti-β1EC2-induced β1-AR/cAMP signaling in HEKβ1-cells; test: FRET cAMP assay (Epac1-camps), blockade of anti-β1EC2-induced signals; assay type: cell-based, human; details: HEKβ1-cells with Epac1-camps FRET-sensor; IgG pre-incubated with peptide (Fig. 1F)
Description: The effects of anti-β1EC2 on β1AR-mediated intracellular cAMP-production were assessed by measuring fluorescence resonance energy transfer (FRET) in HEKβ1-cells transiently transfected with a FRET-sensor for cAMP, Epac1-camps. The sensor consists of the cAMP-binding protein Epac1 flanked by enhanced cyan or yellow fluorescent protein. […] IgG-preparations were added to the cells at 0.13 μg/μl protein concentration; 2μM (-)isoproterenol (Sigma) was used as a reference to determine the maximal cAMP-response. To test the blocking-efficacy of β1EC2-CP on anti-β1EC2-induced adrenergic signaling, the different IgG-preparations were pre-incubated with β1EC2-CP (20 μg/μl) for 6 h at 4 °C; for pharmacological blockade of anti-β1EC2-induced signals we utilised 5.0μM bisoprolol.
(D) Immunostaining experiments with rat anti- β1EC2 (1:100) using HEK-cells stably expressing β1-ARs (HEK β1) or not (wild type; HEK WT). IgG was prepared from anti- β1EC2-positive rats or 0.9% NaCl-injected control rats. Amino-terminal β1AR-specific rabbit anti-bodies (1:250) served as positive controls. […] HEK β1-cells were transfected with the cAMP-sensor Epac1-camps, which reacts to cAMP-binding with a reduction in fluorescence resonance energy transfer (FRET) between its fluorophores cyan (CFP) and yellow fluorescent protein (YFP). […] Representative FRET-ratio traces of 1/5 experiments are shown. Values are given in % of maximal cAMP-response achieved with 0.3μM (-)isoproterenol (Iso).

[2] = test system: rat anti-β1EC2; test: Competition-ELISA, blocking of rat anti-β1EC2; assay type: binding; details: preincubation (12h, 4°C) with 40-fold excess of peptide; linear β1EC2-peptides (AA199-223) as antigen; n = 20 (Fig. 1B)

“cyclo(RATHQEAINCYANETCCDFFTNQG) (cysteine pairing not given here) [β2EC2-CP, control for specificity, reference compound]” was tested, and the “blockade of anti-β1EC2-induced cAMP-signals, in words” value [1] was “not blocked at all” and the “blocking of anti-β1EC2 in competition-ELISA, in words” value [2] was “not blocked at all”.
